Experimental data: PubChem BioAssay (NCI)
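Test compounds were applied to cells in 96-well plates for 48 hours at 5 doses. TGI marks complete inhibition of growth.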

Legend:
Experiment in all cases: inhibition of tumour cell growth, NCI panel, 48 h
[1] = test system: NCI-H23 lung
[2] = test system: KM20L2 colon
[3] = test system: SN12C renal
[4] = test system: ACHN renal
[5] = test system: UO-31 renal
[6] = test system: M19-MEL melanoma
[7] = test system: NCI-H460 lung
[8] = test system: OVCAR-5 ovarian
[9] = test system: SNB-19 CNS
[10] = test system: TK-10 renal
[11] = test system: SK-MEL-2 melanoma
[12] = test system: UACC-62 melanoma
[13] = test system: RPMI-8226 leukemia
[14] = test system: K-562 leukemia
[15] = test system: MOLT-4 leukemia
[16] = test system: SF-295 CNS
[17] = test system: SK-MEL-5 melanoma
[18] = test system: DLD-1 colon
[19] = test system: HL-60(TB) leukemia
[20] = test system: NCI-H522 lung
[21] = test system: OVCAR-4 ovarian
[22] = test system: KM12 colon
[23] = test system: SF-539 CNS
[24] = test system: LOX IMVI melanoma
[25] = test system: MALME-3M melanoma
[26] = test system: U251 CNS
[27] = test system: SNB-78 CNS
[28] = test system: RXF 393 renal
[29] = test system: RXF-631 renal
[30] = test system: HCT-116 colon
[31] = test system: UACC-257 melanoma
[32] = test system: OVCAR-8 ovarian
[33] = test system: HOP-62 NSCLC
[34] = test system: LXFL 529 NSCLC
[35] = test system: CCRF-CEM leukemia
[36] = test system: M14 melanoma
[37] = test system: SNB-75 CNS
[38] = test system: SR leukemia
[39] = test system: HOP-18 NSCLC
[40] = test system: HOP-92 NSCLC
[41] = test system: EKVX NSCLC
[42] = test system: SK-OV-3 ovarian
[43] = test system: HCT-15 colon
[44] = test system: SW-620 colon
[45] = test system: A549 NSCLC
[46] = test system: OVCAR-3 ovarian
[47] = test system: CAKI-1 renal
[48] = test system: HCC-2998 colon
[49] = test system: DMS 114 small cell lung
[50] = test system: SF-268 CNS
[51] = test system: COLO 205 colon
[52] = test system: NCI-H226 lung
[53] = test system: SK-MEL-28 melanoma
[54] = test system: HT29 colon
[55] = test system: IGROV1 ovarian
[56] = test system: 786-0 renal
[57] = test system: DU-145 prostate
[58] = test system: MCF7 breast
[59] = test system: DMS 273 small cell lung
[60] = test system: MDA-N
[61] = test system: MDA-MB-231 breast
[62] = test system: A498 renal

COc1cc2ccc3c4cc(OC)c(OC(C)C)cc4cnc3c2cc1OC
TGI [1]: > 100 µM
TGI [2]: > 100 µM
TGI [3]: > 100 µM
TGI [4]: > 100 µM
TGI [5]: > 100 µM
TGI [6]: > 100 µM
TGI [7]: > 100 µM
TGI [8]: > 100 µM
TGI [9]: > 100 µM
TGI [10]: > 100 µM
TGI [11]: > 100 µM
TGI [12]: > 100 µM
TGI [13]: > 100 µM
TGI [14]: > 100 µM
TGI [15]: > 100 µM
TGI [16]: > 100 µM
TGI [17]: > 100 µM
TGI [18]: > 100 µM
TGI [19]: > 100 µM
TGI [20]: > 100 µM
TGI [21]: > 100 µM
TGI [22]: > 100 µM
TGI [23]: > 100 µM
TGI [24]: > 100 µM
TGI [25]: > 100 µM
TGI [26]: > 100 µM
TGI [27]: > 100 µM
TGI [28]: > 100 µM
TGI [29]: > 100 µM
TGI [30]: > 100 µM
TGI [31]: > 100 µM
TGI [32]: > 100 µM
TGI [33]: > 100 µM
TGI [34]: > 100 µM
TGI [35]: > 100 µM
TGI [36]: > 100 µM
TGI [37]: > 100 µM
TGI [38]: > 100 µM
TGI [39]: > 100 µM
TGI [40]: > 100 µM
TGI [41]: > 100 µM
TGI [42]: > 100 µM
TGI [43]: > 100 µM
TGI [44]: > 100 µM
TGI [45]: > 100 µM
TGI [46]: > 100 µM
TGI [47]: > 100 µM
TGI [48]: > 100 µM
TGI [49]: > 100 µM
TGI [50]: > 100 µM
TGI [51]: > 100 µM
TGI [52]: > 100 µM
TGI [53]: > 100 µM
TGI [54]: > 100 µM
TGI [55]: > 100 µM
TGI [56]: > 100 µM

COc1ccc2nc3ccccc3c(NCCCCCCN(CCCl)CCCl)c2c1
TGI [2]: 2.07 µM
TGI [5]: 0.513 µM
TGI [6]: 5.12 µM
TGI [7]: 0.853 µM
TGI [8]: 1.9 µM
TGI [9]: 3.45 µM
TGI [10]: 23.8 µM
TGI [14]: > 18.5 µM
TGI [16]: 1.01 µM
TGI [17]: 1.64 µM
TGI [18]: 2.2 µM
TGI [19]: 0.592 µM
TGI [21]: 1.05 µM
TGI [22]: 1.14 µM
TGI [57]: 1.47 µM
TGI [24]: 0.0394 µM
TGI [26]: 1.57 µM
TGI [27]: 2.13 µM
TGI [29]: 1.96 µM
TGI [30]: 1.39 µM
TGI [58]: 0.157 µM
TGI [31]: > 22.9 µM
TGI [33]: 2.42 µM
TGI [34]: 1.72 µM
TGI [36]: 0.514 µM
TGI [37]: 0.0924 µM
TGI [38]: 0.346 µM
TGI [59]: 0.206 µM
TGI [41]: 4.22 µM
TGI [42]: 2.74 µM
TGI [60]: 0.656 µM
TGI [61]: 3.37 µM
TGI [44]: 0.472 µM
TGI [45]: 6.06 µM
TGI [46]: 3.14 µM
TGI [47]: 0.197 µM
TGI [50]: 1.18 µM
TGI [51]: 0.107 µM
TGI [52]: 1.53 µM
TGI [53]: 76.1 µM
TGI [54]: 1.28 µM
TGI [55]: 3.85 µM

Oc1cc(C2OCCCO2)cc(O)c1O
TGI [1]: > 100 µM
TGI [2]: > 100 µM
TGI [3]: > 100 µM
TGI [4]: > 100 µM
TGI [5]: > 100 µM
TGI [6]: > 100 µM
TGI [62]: > 100 µM
TGI [7]: > 100 µM
TGI [8]: > 100 µM
TGI [9]: > 100 µM
TGI [10]: > 100 µM
TGI [11]: > 100 µM
TGI [12]: > 100 µM
TGI [13]: > 100 µM
TGI [14]: > 100 µM
TGI [15]: > 100 µM
TGI [16]: > 100 µM
TGI [17]: > 100 µM
TGI [18]: > 100 µM
TGI [19]: > 100 µM
TGI [20]: > 100 µM
TGI [21]: > 100 µM
TGI [22]: > 100 µM
TGI [23]: > 100 µM
TGI [25]: > 100 µM
TGI [26]: > 100 µM
TGI [27]: > 100 µM
TGI [29]: > 100 µM
TGI [30]: > 100 µM
TGI [31]: > 100 µM
TGI [32]: > 100 µM
TGI [33]: > 100 µM
TGI [34]: > 100 µM
TGI [35]: > 100 µM
TGI [36]: > 100 µM
TGI [37]: > 100 µM
TGI [38]: > 100 µM
TGI [39]: > 100 µM
TGI [59]: > 100 µM
TGI [41]: > 100 µM
TGI [42]: > 100 µM
TGI [43]: > 100 µM
TGI [44]: > 100 µM
TGI [45]: > 100 µM
TGI [46]: > 100 µM
TGI [47]: > 100 µM
TGI [48]: > 100 µM
TGI [49]: > 100 µM
TGI [50]: > 100 µM
TGI [51]: > 100 µM
TGI [52]: > 100 µM
TGI [53]: > 100 µM
TGI [54]: > 100 µM
TGI [55]: > 100 µM
TGI [56]: > 100 µM

O=C1[C@H]2ON(c3ccccc3)C(c3ccc(Cl)cc3)[C@H]2C(=O)N1c1ccc(Cc2ccc(N3C(=O)[C@@H]4ON(c5ccccc5)C(c5ccc(Cl)cc5)[C@@H]4C3=O)cc2)cc1 (stereo not given in full)
TGI [1]: > 100 µM
TGI [2]: > 100 µM
TGI [3]: > 100 µM
TGI [4]: > 100 µM
TGI [5]: > 100 µM
TGI [6]: > 100 µM
TGI [62]: > 100 µM
TGI [7]: > 100 µM
TGI [8]: > 100 µM
TGI [9]: > 100 µM
TGI [10]: > 100 µM
TGI [11]: > 100 µM
TGI [12]: > 100 µM
TGI [13]: > 100 µM
TGI [14]: > 100 µM
TGI [15]: > 100 µM
TGI [16]: > 100 µM
TGI [17]: > 100 µM
TGI [18]: > 100 µM
TGI [19]: > 100 µM
TGI [20]: > 100 µM
TGI [21]: > 100 µM
TGI [22]: > 100 µM
TGI [23]: > 100 µM
TGI [24]: > 100 µM
TGI [25]: > 100 µM
TGI [26]: > 100 µM
TGI [27]: > 100 µM
TGI [28]: > 100 µM
TGI [29]: > 100 µM
TGI [30]: > 100 µM
TGI [31]: > 100 µM
TGI [32]: > 100 µM
TGI [33]: > 100 µM
TGI [34]: > 100 µM
TGI [35]: > 100 µM
TGI [36]: 66.8 µM
TGI [37]: > 100 µM
TGI [38]: > 100 µM
TGI [39]: > 100 µM
TGI [59]: > 100 µM
TGI [41]: > 100 µM
TGI [42]: > 100 µM
TGI [43]: > 100 µM
TGI [44]: > 100 µM
TGI [45]: > 100 µM
TGI [46]: > 100 µM
TGI [47]: > 100 µM
TGI [48]: > 100 µM
TGI [49]: > 100 µM
TGI [50]: > 100 µM
TGI [51]: > 100 µM
TGI [52]: > 100 µM
TGI [53]: > 100 µM
TGI [54]: > 100 µM
TGI [55]: > 100 µM
TGI [56]: > 100 µM
